Where “and” joins values, the source holds several entries; their conditions need not be identical. Equal values may be shown once. Toxic doses and inconclusive results are not listed. How the source made its calls: active means survival T/C of 150% or more; inactive means T/C below 125% in these data. Peptide text beside a SMILES is read from it.
Tested on: P388 leukemia ip, CD2F1 mice, survival T/C
Assay: NCI In Vivo Anticancer Drug Screen. Data for tumor model P388 Leukemia (intraperitoneal) in CD2F1 (CDF1) mice
Conditions: endpoint: median survival time, higher = longer survival
Procedure, shortened: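 Mice carrying the transplanted tumor received test compound or vehicle. Survival was recorded in each group, and the value is the treated-group measurement divided by that of the vehicle-treated control group.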

[1] = dose: 12.5 mg/kg/injection, schedule: Q01DX009 (ip), vehicle: saline
[2] = dose: 25.0 mg/kg/injection, schedule: Q01DX009 (ip), vehicle: saline
[3] = dose: 50.0 mg/kg/injection, schedule: Q01DX009 (ip), vehicle: saline
[4] = dose: 100.0 mg/kg/injection, schedule: Q01DX009 (ip), vehicle: saline
[5] = dose: 200.0 mg/kg/injection, schedule: Q01DX009 (ip), vehicle: saline
[6] = dose: 50.0 mg/kg/injection, schedule: Q01DX009 (ip), vehicle: saline with Tween-80
[7] = dose: 100.0 mg/kg/injection, schedule: Q01DX009 (ip), vehicle: saline with Tween-80
[8] = dose: 50.0 mg/kg/injection, schedule: Q01DX005 (ip), vehicle: saline
[9] = dose: 100.0 mg/kg/injection, schedule: Q01DX005 (ip), vehicle: saline
[10] = dose: 200.0 mg/kg/injection, schedule: Q01DX009 (ip), vehicle: saline with Tween-80
[11] = dose: 60.0 mg/kg/injection, schedule: Q01DX005 (ip), vehicle: saline with Tween-80
[12] = dose: 120.0 mg/kg/injection, schedule: Q01DX005 (ip), vehicle: saline with Tween-80
[13] = dose: 240.0 mg/kg/injection, schedule: Q01DX005 (ip), vehicle: saline with Tween-80

Measured: T/C

c1cc2n(n1)CCN2
inactive: [1] 104 % of control | [2] 109 % of control | [3] 100 % of control and 104 % of control | dose: 80.0 mg/kg/injection, schedule: Q01DX009 (ip), vehicle: saline 111 % of control | [4] 111 % of control and 120 % of control | dose: 120.0 mg/kg/injection, schedule: Q01DX009 (ip), vehicle: saline 113 % of control | [5] 100 % of control | dose: 225.0 mg/kg/injection, schedule: Q03DX003 (ip), vehicle: saline 111 % of control | dose: 264.0 mg/kg/injection, schedule: Q04DX003 (ip), vehicle: saline 100 % of control | dose: 300.0 mg/kg/injection, schedule: Q03DX003 (ip), vehicle: saline 111 % of control | dose: 375.0 mg/kg/injection, schedule: Q03DX003 (ip), vehicle: saline 124 % of control | dose: 400.0 mg/kg/injection, schedule: Q04DX003 (ip), vehicle: saline 118 % of control

CCOC1=C(C)Sc2ccccc2N=C1c1ccccc1
inactive: dose: 100.0 mg/kg/injection, schedule: Q04DX002 (ip), vehicle: Klucel + Tween-80 99 % of control | dose: 200.0 mg/kg/injection, schedule: Q04DX002 (ip), vehicle: Klucel + Tween-80 93 % of control | dose: 400.0 mg/kg/injection, schedule: Q04DX002 (ip), vehicle: Klucel + Tween-80 98 % of control

O=[N+]([O-])c1ccc(Sc2ccncn2)c([N+](=O)[O-])c1
inactive: dose: 12.5 mg/kg/injection, schedule: Q01DX009 (ip), vehicle: saline with Tween-80 91 % of control | dose: 25.0 mg/kg/injection, schedule: Q01DX009 (ip), vehicle: saline with Tween-80 116 % of control | [6] 123 % of control | [7] 116 % of control

CCC(C)NC1(N(C)C)N=C(N(C)C)N=C(N(C)C)O1 (stereo not drawn)
inactive: [8] 101 % of control | [9] 99 % of control

CCCCCCCCCCCCCCCCOc1ccc(S(=O)(=O)c2ccccc2)cc1[N+](=O)[O-]
inactive: dose: 25.0 mg/kg/injection, schedule: Q04DX003 (ip), vehicle: saline sonified 100 % of control | dose: 50.0 mg/kg/injection, schedule: Q04DX003 (ip), vehicle: saline sonified 100 % of control | dose: 100.0 mg/kg/injection, schedule: Q04DX003 (ip), vehicle: saline sonified 90 % of control

Clc1ccccc1C(c1ccccc1)(c1ccccc1)n1ccnc1
inactive: [3] 113 % of control | [4] 113 % of control | [5] 113 % of control

Cc1ccc(S(=O)(=O)CC(=O)CC(=O)C(C#N)c2cccc(Cl)c2)cc1 (stereo not drawn)
inactive: dose: 50.0 mg/kg/injection, schedule: Q01DX005 (ip), vehicle: saline with Tween-80 100 % of control | dose: 100.0 mg/kg/injection, schedule: Q01DX005 (ip), vehicle: saline with Tween-80 99 % of control | dose: 200.0 mg/kg/injection, schedule: Q01DX005 (ip), vehicle: saline with Tween-80 107 % of control

CC(C)C(NC(=O)C(CCCN=C(N)N)NC(=O)C(N)CCCCN)C(N)=O (stereo not drawn) (H-Lys-Arg-Val-NH2; configuration not given here)
inactive: dose: 12.5 mg/kg/injection, schedule: Q01DX009 (ip), vehicle: water 105 % of control | dose: 25.0 mg/kg/injection, schedule: Q01DX009 (ip), vehicle: water 103 % of control | dose: 50.0 mg/kg/injection, schedule: Q01DX009 (ip), vehicle: water 99 % of control | dose: 100.0 mg/kg/injection, schedule: Q01DX009 (ip), vehicle: water 105 % of control | dose: 200.0 mg/kg/injection, schedule: Q01DX009 (ip), vehicle: water 100 % of control

CC(C)CC1N=C(N(C)N=O)OP1(=O)NNc1ncccn1 (stereo not drawn)
inactive: dose: 60.0 mg/kg/injection, schedule: Q01DX005 (ip), vehicle: saline 97 % of control | dose: 120.0 mg/kg/injection, schedule: Q01DX005 (ip), vehicle: saline 102 % of control | dose: 240.0 mg/kg/injection, schedule: Q01DX005 (ip), vehicle: saline 99 % of control

N#Cc1c(NC(=S)NC(=O)c2ccc(Cl)c(Cl)c2)sc(=S)c2c1CCCC2
inactive: [6] 108 % of control | [7] 96 % of control | [10] 92 % of control

O=C1c2ccccc2C2N1CCC1CCc3ccccc3N12 (stereo not drawn)
inactive: [6] 92 % of control | [7] 91 % of control | [10] 89 % of control

O=C1CCCCC1N1C(=O)c2ccccc2C1=O (stereo not drawn)
inactive: dose: 100.0 mg/kg/injection, schedule: Q04DX002 (ip), vehicle: Klucel (hydroxypropylcellulose) (HPC) 101 % of control | dose: 200.0 mg/kg/injection, schedule: Q04DX002 (ip), vehicle: Klucel (hydroxypropylcellulose) (HPC) 97 % of control | dose: 400.0 mg/kg/injection, schedule: Q04DX002 (ip), vehicle: Klucel (hydroxypropylcellulose) (HPC) 97 % of control

COc1ccc(CCN2C(=O)CC(CC3=NCCc4cc(OC)c(OC)cc43)CC2=O)cc1OC
inactive: [8] 103 % of control | [9] 95 % of control

Cn1nc(-c2ccccc2)c(-c2cc(-c3ccccc3)n[nH]2)c(N)c1=O
inactive: [11] 87 % of control | [12] 89 % of control | [13] 97 % of control

CN(C)CCCC1(O)c2ccccc2CCc2ccccc21
inactive: [1] 103 % of control | [2] 108 % of control | [3] 101 % of control and 119 % of control | [4] 94 % of control

CC1=CC(O)C(O)C2(C)C1CC(=O)C13COC4OC(CC1C4=O)C(O)C32 (stereo not drawn)
inactive: dose: 0.5 mg/kg/injection, schedule: Q01DX009 (ip), vehicle: saline 102 % of control | dose: 1.0 mg/kg/injection, schedule: Q01DX009 (ip), vehicle: saline 103 % of control | dose: 2.0 mg/kg/injection, schedule: Q01DX009 (ip), vehicle: Klucel (hydroxypropylcellulose) (HPC) 96 % of control and 97 % of control | dose: 2.0 mg/kg/injection, schedule: Q01DX009 (ip), vehicle: saline 107 % of control | dose: 4.0 mg/kg/injection, schedule: Q01DX009 (ip), vehicle: Klucel (hydroxypropylcellulose) (HPC) 100 % of control and 111 % of control and 92 % of control | dose: 4.0 mg/kg/injection, schedule: Q01DX009 (ip), vehicle: saline 102 % of control | dose: 8.0 mg/kg/injection, schedule: Q01DX009 (ip), vehicle: Klucel (hydroxypropylcellulose) (HPC) 98 % of control and 94 % of control | dose: 16.0 mg/kg/injection, schedule: Q01DX009 (ip), vehicle: Klucel (hydroxypropylcellulose) (HPC) 92 % of control | dose: 32.0 mg/kg/injection, schedule: Q01DX009 (ip), vehicle: Klucel (hydroxypropylcellulose) (HPC) 86 % of control

CCCCCCCCCCCCCCCCN(CC)CC
inactive: dose: 2.5 mg/kg/injection, schedule: Q01DX009 (ip), vehicle: saline 105 % of control | dose: 5.0 mg/kg/injection, schedule: Q01DX009 (ip), vehicle: saline 108 % of control | dose: 10.0 mg/kg/injection, schedule: Q01DX009 (ip), vehicle: saline 103 % of control

CCCCCC[N+]1(CC)CCCCC1
inactive: dose: 6.25 mg/kg/injection, schedule: Q01DX009 (ip), vehicle: saline 107 % of control | [1] 105 % of control | [2] 107 % of control

Cn1ncc2c(Cl)ncnc21
inactive: dose: 50.0 mg/kg/injection, schedule: Q01DX009 (ip), vehicle: Klucel (hydroxypropylcellulose) (HPC) 91 % of control | dose: 100.0 mg/kg/injection, schedule: Q01DX009 (ip), vehicle: Klucel (hydroxypropylcellulose) (HPC) 93 % of control | dose: 200.0 mg/kg/injection, schedule: Q01DX009 (ip), vehicle: Klucel (hydroxypropylcellulose) (HPC) 107 % of control

N#C/C=C1/C=CC(O)CC1OC1OC(CO)C(O)C(O)C1O (stereo not drawn)
inactive: dose: 3.0 mg/kg/injection, schedule: Q01DX009 (ip), vehicle: saline 102 % of control | dose: 6.0 mg/kg/injection, schedule: Q01DX009 (ip), vehicle: saline 101 % of control | dose: 12.0 mg/kg/injection, schedule: Q01DX009 (ip), vehicle: saline 102 % of control | dose: 24.0 mg/kg/injection, schedule: Q01DX009 (ip), vehicle: saline 104 % of control

CCOC(=O)/C(C#N)=C(\CC)c1cc(Cl)cc(Cl)c1O
inactive: [11] 100 % of control | [12] 90 % of control | [13] 96 % of control

COc1cc2ccc(/C=C\[N+](=O)[O-])cc2cc1OC
inactive: dose: 3.13 mg/kg/injection, schedule: Q01DX009 (ip), vehicle: other 105 % of control | dose: 6.25 mg/kg/injection, schedule: Q01DX009 (ip), vehicle: other 108 % of control | dose: 12.5 mg/kg/injection, schedule: Q01DX009 (ip), vehicle: other 107 % of control | dose: 25.0 mg/kg/injection, schedule: Q01DX009 (ip), vehicle: other 108 % of control

Cc1c2c(c(C)c3c1C(=O)c1cc4c(cc1C3=O)OCO4)OCO2
inactive: [11] 92 % of control | [12] 99 % of control | [13] 102 % of control
